Assays:
FGR = test: Gene expression assay (real-time PCR) in U2OS-ERα cells: reprogrammed gene FGR; assay type: cell-based, Human; details: FIG. 5
Experimental: (§1) Human U2OS (osteosarcoma) cells expressing a tetracycline-regulated ERα (U2OS-ERα) were prepared, characterized, and maintained as previously described (Tee et al., 2004). The cells were maintained in phenol red-free Gibco DMEM/F-12 (Thermo Fisher Scientific, Waltham, MA, USA) supplemented with 5% charcoal-dextran stripped fetal bovine serum (FBS, Gemini Bio Products, West Sacramento, CA, USA), 100 units/mL penicillin and streptomycin, 50 μg/mL Fungizone, and 2 mM of glutamine. To maintain stable transfected cells, 50 μg/mL hygromycin B and 500 μg/mL of zeocin (Invitrogen, Waltham, MA, USA) were included in culture media.

ERα [1] = biological target: T1, ERα (Homo sapiens, UniProt P03372); test: Luciferase activity in ERE-TK-Luc/ERα-transfected Ishikawa cells; assay type: cell-based; design: expressed in transfected cells; host or cells: Ishikawa cells; details: FIG. 6
T1 sequence (P03372 1-595): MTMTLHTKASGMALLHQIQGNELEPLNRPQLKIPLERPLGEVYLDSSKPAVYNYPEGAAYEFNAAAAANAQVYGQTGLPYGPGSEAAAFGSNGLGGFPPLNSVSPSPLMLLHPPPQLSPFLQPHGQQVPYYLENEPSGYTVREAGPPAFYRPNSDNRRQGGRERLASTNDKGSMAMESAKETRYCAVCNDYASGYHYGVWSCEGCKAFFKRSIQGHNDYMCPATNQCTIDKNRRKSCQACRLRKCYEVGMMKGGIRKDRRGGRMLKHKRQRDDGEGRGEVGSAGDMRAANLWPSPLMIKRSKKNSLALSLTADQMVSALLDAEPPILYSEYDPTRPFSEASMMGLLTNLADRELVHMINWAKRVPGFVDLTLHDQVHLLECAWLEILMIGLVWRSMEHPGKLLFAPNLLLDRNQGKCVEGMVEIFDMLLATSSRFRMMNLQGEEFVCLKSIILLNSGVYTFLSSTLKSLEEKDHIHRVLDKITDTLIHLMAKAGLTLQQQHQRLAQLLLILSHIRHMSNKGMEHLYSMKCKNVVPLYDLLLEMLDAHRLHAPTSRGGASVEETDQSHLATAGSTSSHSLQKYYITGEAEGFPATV

[2] = tested on: MCF-7 breast cancer cells; test: MCF-7 cell proliferation (viable cell counts), A9 and its four analogs; assay type: cell-based
Experimental: Viable cell counts were determined by flow cytometry.
(§2) MCF-7 cells were plated at a density of 50,000 cells per well in 6-well tissue culture plates in DMEM/F12 supplemented with 5% stripped FBS. […] The cells were then detached with trypsin, neutralized with media containing 5% FBS, and resuspended. Appropriate amounts of cell suspension were placed in ISOTON II diluent (Thermo Fisher Scientific, Waltham, MA, USA) and the cell numbers were then measured using a Coulter Counter (Beckman, Brea, CA, USA)
(§3) Flow cytometry was performed based on a previously described method (Pan et al. 2016). Briefly, the cells were plated at a density of 500,000 cells per well in 6-well tissue culture dishes in DMEM/F-12 supplemented with 5% stripped FBS for 48 h. The cultured medium was then replaced by serum-free DMEM/F12 for 24 h. […] The culture medium was then aspirated, and the cells were washed with PBS, detached with trypsin and collected by centrifugation at 1700 rpm for 5 min. The cell pellets were washed with ice cold PBS followed by centrifugation at 1700 rpm for 10 min at room temperature. The cell pellets were resuspended in 500 μL PBS containing 50 μg/mL propidium iodide, 0.1% of triton X-100, 0.1% of sodium citrate, and 10 μg/mL of RNase. The cell suspensions were then analyzed with a BD LSR II Flow Cytometer (BD Biosciences, San Jose, CA, USA) in the Flow Cytometry facility at University of California, Berkeley and the percentage of cells in cell cycle phases were determined by using FlowJo 7.6.5 (FlowJo, LLC, Ashland, OR, USA).

KRT19 = test: Gene expression assay (real-time PCR) in U2OS-ERα cells: KRT19; assay type: cell-based, Human; details: in combination with E2, U2OS-ERα cells, FIG. 5
Experimental: as §1

[3] = tested on: MCF-7 breast cancer cells; test: MCF-7 cell proliferation (viable cell counts), CC7 and six analogs; assay type: cell-based
Experimental: In order for long term menopausal hormone therapy to be a viable alternative to currently available therapeutic options it must not promote breast cancer. […] MCF-7 cells were incubated for 24 hr in the presence of medium (control), 1 nM […], or 5 μM of each of the compounds depicted in FIG. 4 (CC7 and six analogs, A9, A10, A11, A13, A15, and A20). Viable cell counts were determined by flow cytometry.
as §2, with “CA, USA).” for “CA, USA)”
as §3

ERα [4] = biological target: T1, ERα; test: Luciferase assay of A9 analogs in doxycycline-dependent U2OS cells (ER-TK-Luc or NKG2E-TK-Luc); assay type: cell-based; design: expressed in transfected cells; host or cells: doxycycline-dependent U2OS cells; details: in combination with E2; ER-TK-Luc (FIG. 9) and NKG2E-TK-Luc (FIG. 10); compared with A9R1-A9R4
Experimental: Luciferase Assay of A9 analogs. In order to better understand the structure-activity relationship of analogs of A9, the analogs A9R1, A9R2, A9R3, and A9R4 were prepared. See structures on FIG. 8. […] Luciferase activity results are shown in FIG. 9 (ER-TK-Luc) and FIG. 10 (NKG2E-TK-Luc).

ERβ = biological target: T2, ERβ (Homo sapiens, UniProt Q92731); test: Luciferase activity in NKG2E-TK-Luc-transfected U2OS-ERβ cells with doxycycline; assay type: cell-based; details: in combination with E2, doxycycline, FIG. 7
T2 construct: expressed in transfected cells; host or cells: doxycycline-dependent U2OS cells
Experimental: Luciferase Activity in NKG2E-TK-Luc-Transfected U2OS-ERβ Cells with Doxycycline. […] Luciferase activity for each of the compounds was recorded.

[5] = in combination with E2, Ishikawa cells
[6] = compound (5 μM) in combination with E2, FIG. 11
[7] = compound alone (1 nM E2 or 5 μM compound), FIG. 11
[8] = compound (5 μM) in combination with E2, FIG. 4

T2 sequence (Q92731 whole entry): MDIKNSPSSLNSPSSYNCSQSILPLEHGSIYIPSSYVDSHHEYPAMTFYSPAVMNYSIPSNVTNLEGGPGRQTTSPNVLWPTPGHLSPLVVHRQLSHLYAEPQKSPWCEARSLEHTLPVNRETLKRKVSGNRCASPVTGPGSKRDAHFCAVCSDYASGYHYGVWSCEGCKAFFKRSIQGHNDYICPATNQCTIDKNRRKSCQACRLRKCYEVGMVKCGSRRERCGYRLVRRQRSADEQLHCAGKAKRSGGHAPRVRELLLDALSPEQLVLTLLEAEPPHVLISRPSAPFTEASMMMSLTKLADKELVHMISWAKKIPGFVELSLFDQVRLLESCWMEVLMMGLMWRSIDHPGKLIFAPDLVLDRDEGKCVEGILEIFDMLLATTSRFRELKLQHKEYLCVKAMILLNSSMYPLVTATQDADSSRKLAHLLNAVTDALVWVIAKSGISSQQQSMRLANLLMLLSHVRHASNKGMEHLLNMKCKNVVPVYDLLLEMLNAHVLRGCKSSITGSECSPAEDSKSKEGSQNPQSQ

SMILES	MCF-7 viable cell count / proliferation [2, 6]	MCF-7 viable cell count / proliferation [3, 8]	luciferase activity (NKG2E-TK-Luc), ERβ activity (ERβ)	other results
O=C(/C=C/c1ccccc1)c1ccc(O)c(O)c1O [CC7, 2′,3′,4′-trihydroxychalcone, reference compound]	well below the control	well below the cell counts for E2 alone		FGR expression (FGR; compound by itself, U2OS-ERα cells): not by either compound by itself; FGR expression (FGR; in combination with E2, U2OS-ERα cells): activated by the combination of E2 and CC7 only; luciferase activity (ERE-TK-Luc) (ERα [1]; compound alone, Ishikawa cells): no effect; luciferase activity (ERE-TK-Luc) (ERα [1]; [5]): demonstrated synergism with E2; MCF-7 viable cell count / proliferation [2, 7]: well below the cell counts for E2 alone; KRT19 expression (KRT19): large synergistic effect; MCF-7 viable cell count / proliferation ([3]; compound alone (1 nM E2 or 5 μM compound), FIG. 4): well below the cell counts for E2 alone
O=C(/C=C/c1ccccn1)c1ccc(O)c(O)c1O [Example A9, (E)-3-(pyridin-2-yl)-1-(2,3,4-trihydroxyphenyl)prop-2-en-1-one]	well below the control	well below the control		luciferase activity, synergistic effect with E2 (ERα [4]): greatest synergistic effect with E2; luciferase activity (ERE-TK-Luc) (ERα [1]; compound alone, Ishikawa cells): no effect; luciferase activity (ERE-TK-Luc) (ERα [1]; [5]): demonstrated synergism with E2; MCF-7 viable cell count / proliferation [2, 7]: well below the cell counts for E2 alone
O=C(/C=C/c1ccccn1)c1ccc(O)cc1 [Example A9R1, (E)-1-(4-hydroxyphenyl)-3-(pyridin-2-yl)prop-2-en-1-one]	well below the control			
Cc1cc(O)ccc1C(=O)/C=C/c1ccccn1 [Example A9R2, (E)-1-(4-hydroxy-2-methylphenyl)-3-(pyridin-2-yl)prop-2-en-1-one]	well below the control			
O=C(/C=C/c1ccccn1)c1ccc(O)cc1O [Example A9R4, (E)-1-(2,4-dihydroxyphenyl)-3-(pyridin-2-yl)prop-2-en-1-one]	well below the control			
O=C(/C=C/c1cccc(O)c1)c1ccc(O)c(O)c1O [Example A10, (E)-3-(3-hydroxyphenyl)-1-(2,3,4-trihydroxyphenyl)prop-2-en-1-one]		well below the cell counts for E2 alone	exceptional ERβ activity	
O=C(/C=C/c1ccc(O)cc1)c1ccc(O)cc1 [Example A13, (E)-1,3-bis(4-hydroxyphenyl)prop-2-en-1-one]			exceptional ERβ activity	
O=C(/C=C/c1ccc(O)cc1)c1ccc(O)c(O)c1 [Example A14, (E)-1-(3,4-dihydroxyphenyl)-3-(4-hydroxyphenyl)prop-2-en-1-one]			exceptional ERβ activity	
O=C(/C=C/c1ccc(O)cc1)c1ccccc1 [Example A15, (E)-3-(4-hydroxyphenyl)-1-phenylprop-2-en-1-one]			exceptional ERβ activity	

Source: patent US20250228795A1, “ESTROGENIC COMPOUNDS AND METHODS OF USE” (laterion, Inc., priority 2022, published 2025)
